Test results as given in patent US20080182895A1 (priority 2006, published 2008).
“And” between values parts separate entries of the source, which are not always exact repeats. Equal values may be shown once. Read-outs that look alike come from different tables or passages of the source.

What was measured:
[1] = tested on: 796R(0.1 μM) cells; experiment: HCV replicon 3-day assay in variant cells; type: cell-based, Hepatitis C virus
Description: (§1) All resistant cells were cultured at the indicated drug concentrations in the presence of 0.5 mg/ml G418 for at least 3 weeks before analysis.
(§2) The levels of HCV RNA were determined using a quantitative TAQMAN® RT-PCR (PE Applied Biosystems, Foster City, Calif.).
(§3) Drug susceptibility of the replicon-containing cells to various compounds was evaluated as described previously (Howe et al. (2004) Antimicrobial Agents Chem. 48:4813-21). Briefly, cells were treated with increasing concentrations of compounds in medium containing 2% FCS and no G418 for three days at 37° C. and 5% CO2. After incubation, total RNA from the replicon-containing cells was isolated. The levels of HCV, glyceraldehyde 3-phosphate dehydrogenase (GAPDH) and ribosomal (rRNA) RNAs were quantified using TAQMAN® (PE Applied Biosystems, Foster City, Calif.) reverse transcriptase PCR reactions. The amounts of HCV, 18S ribosomal, and GAPDH RNAs in each sample were estimated by comparing the number of cycles during the exponential phase of the PCR amplification with those in the corresponding standard curves. HCV RNA standards used for the construction of the standard curve were prepared by extracting the total RNA from the Clone A cells. The RNA sample was sent to National Genetics Institute to quantify HCV RNA. Total RNA extracted from Clone A cells was quantified by O.D.260 measurement and used for construction of the standard curves of rRNA and GAPDH. The concentrations of the compounds that inhibit 50% of the HCV RNA level (EC50) were determined using the MDL® LIFE SCIENCE WORKBENCH® (LSW) Data Analysis software (MDL Information Systems, San Leandro, Calif.) in Microsoft EXCEL®. The amounts of HCV or GAPDH RNAs in the samples were expressed as HCV RNA (copies) or GAPDH (ng), respectively, per μg of total RNA using rRNA as a marker for total RNA measurement.

[2] = tested on: 796R(1 μM) cells; experiment: HCV replicon 3-day assay in variant cells; type: cell-based, Hepatitis C virus
Description: as §1, §2, §3

[3] = tested on: 796R(10 μM) cells; experiment: HCV replicon 3-day assay in variant cells; type: cell-based, Hepatitis C virus
Description: as §1, §2, §3

[4] = tested on: GAPDH mRNA in Clone A cells; type: cell-based, human; conditions: 0.1 and 1 μM HCV-796, throughout the 16-day period
[5] = tested on: HCV NS5B enzyme BB7-C316Y; experiment: NS5B polymerase biochemical assay; design: species or system Hepatitis C virus genotype 1b; conditions: BB7-C316Y vs BB7 (C316)
Description: (§4) All NS5B enzymes were expressed and purified according to the protocol for NS5B-BB7dCT21-His as described (Howe et al. (2004) Antimicrobial Agents Chem. 48:4813-21). Briefly, expression plasmids were transformed into E. coli cells and NS5B expression was initiated by the addition of isopropyl-beta-D-thiogalactopyranoside (IPTG). After 4 to 6 hours of incubation the cells were harvested and lysed. NS5B enzymes were purified by chromatography using a nickel affinity column (Talon, B D Biosciences, Clontech Laboratories, Inc., Mountain View, Calif.)) followed by a cation exchange column (Poros H S, Applied Biosystems, Foster City, Calif.).

[6] = molecular target: T1, HCV NS5B enzyme BK (N316) (Hepatitis C virus genotype 1b, UniProt P26663); experiment: NS5B polymerase biochemical assay
T1 construct: the NS5B enzyme derived from the genotype 1b BK isolate; His (C); made in house; host or cells: E. coli
Description: as §4

[7] = tested on: 1b, BB7 replicon variants with single NS5B mutations; experiment: Replicon variant assay, several variants taken together; type: cell-based, Hepatitis C virus
Description: (§5) pBB7-replicon variant DNAs were linearized with Sca I, and in vitro transcription was performed using Ambion's […]® T7 High Yield Transcription kit (Austin, Tex.). Purified RNA transcripts were electroporated into Huh-7 cells in quadruplicates using a Biorad GENE PULSER® Electroporation System (Setting: 270V, 950 μF) (Hercules, Calif.). Stably transfected replicon variant cell lines were initially selected with 0.25 mg/ml G418 and stepped up to 1 mg/ml before further testing. One cell plate was stained with Crystal Violet to visualize the number of colonies and determine the colony formation efficiency. Individual cell clones from each plate were pooled and expanded for drug susceptibility testing.
(§6) The contribution of individual amino acid changes on drug resistance was assessed in replicon variants containing single amino acid mutations in NS5B in the background of the genotype 1b, BB7 adaptive replicon (Blight et al. (2000) Science 290:1972-74).
as §3

[8] = tested on: recombinant genotype 1b HCV NS5B enzyme variants; experiment: NS5B polymerase biochemical assay, several enzymes taken together; design: species or system Hepatitis C virus genotype 1b
Description: as §4

[9] = tested on: Clone A cells (HCV genotype 1b replicon in Huh-7); experiment: HCV replicon 3-day assay, HCV RNA by TaqMan RT-PCR; type: cell-based, Hepatitis C virus; conditions: for EC50: Hepatitis C virus, Huh-7
Description: The level of HCV RNA from cultures was expressed as % HCV RNA relative to control. Each point represents an average of four replicates. The effective concentration that inhibits 50% of HCV RNA levels (EC50) in the replicon-containing cells is indicated.
as §2, §3

[10] = tested on: 1b, BB7-C316N replicon; experiment: Replicon variant assay (separate laboratory); type: cell-based; conditions: Hepatitis C virus, read-out: HCV RNA EC50 (nM) ± SD
Description: as §5, with “Individual cell clones from each plate were pooled and expanded for drug susceptibility testing.” left out
as §6
Drug susceptibility of the replicon-containing cells to various compounds was evaluated as described previously (Howe et al. (2004) Antimicrobial Agents Chem. 48:4813-21). […] The levels of HCV, glyceraldehyde 3-phosphate dehydrogenase (GAPDH) and ribosomal (rRNA) RNAs were quantified using TAQMAN® (PE Applied Biosystems, Foster City, Calif.) reverse transcriptase PCR reactions. […] The RNA sample was sent to National Genetics Institute to quantify HCV RNA. […]

[11] = tested on: 1b, BB7-I363V replicon; experiment: Replicon variant 3-day assay; type: cell-based, Hepatitis C virus
Description: as §5, §6, §3

[12] = molecular target: T2, HCV NS5B enzyme BB7 (C316) (Hepatitis C virus genotype 1b, UniProt Q9WMX2); experiment: biochemical
T2 construct: according to the protocol for NS5B-BB7dCT21-His as described; His (C); made in house; host or cells: E. coli
Description: as §4

T1 sequence (P26663 2420-2989): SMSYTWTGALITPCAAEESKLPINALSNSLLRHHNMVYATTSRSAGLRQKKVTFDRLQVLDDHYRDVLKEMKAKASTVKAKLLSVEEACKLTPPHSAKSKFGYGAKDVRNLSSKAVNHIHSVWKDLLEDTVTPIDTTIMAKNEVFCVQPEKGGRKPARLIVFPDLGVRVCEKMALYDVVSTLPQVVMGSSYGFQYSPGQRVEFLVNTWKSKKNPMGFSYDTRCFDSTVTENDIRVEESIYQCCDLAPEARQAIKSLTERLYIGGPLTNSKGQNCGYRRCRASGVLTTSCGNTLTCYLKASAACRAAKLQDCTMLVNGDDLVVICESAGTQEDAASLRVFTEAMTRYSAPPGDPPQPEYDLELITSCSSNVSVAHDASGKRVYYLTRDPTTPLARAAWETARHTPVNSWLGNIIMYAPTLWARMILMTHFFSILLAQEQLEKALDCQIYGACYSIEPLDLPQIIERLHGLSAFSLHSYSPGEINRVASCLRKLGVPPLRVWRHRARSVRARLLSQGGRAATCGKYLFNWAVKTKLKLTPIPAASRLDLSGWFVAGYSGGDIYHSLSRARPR

CNC(=O)c1c(-c2ccc(F)cc2)oc2cc(N(CCO)S(C)(=O)=O)c(C3CC3)cc12 [HCV-796, 5-cyclopropyl-2-(4-fluorophenyl)-6-[(2-hydroxyethyl)(methylsulfonyl)amino]-N-methyl-1-benzofuran-3-carboxamide]
Fold Reduced Susceptibility ([1]; 796R(0.1 μM) cells vs Clone A control): 23 fold
Mean log10 Viral Reduction ([1]; 796R(0.1 μM) cells, 56 μM compound, 3-day assay): 1.4 log10 and 1.4 ± 0.3 (56 μM) log10
EC50 ([1]; Hepatitis C virus, 796R(0.1 μM) cells, HCV RNA, 72 hours): 0.3 ± 0.2 µM
Fold Reduced Susceptibility ([2]; 796R(1 μM) cells vs Clone A control): 618 fold
Mean log10 Viral Reduction ([2]; 796R(1 μM) cells, 56 μM compound, 3-day assay): 0.7 log10 and 0.7 ± 0.2 (56 μM) log10
EC50 ([2]; Hepatitis C virus, 796R(1 μM) cells, HCV RNA, 72 hours): 8 ± 5.2 µM
Fold Reduced Susceptibility ([3]; 796R(10 μM) cells vs Clone A control): 6812 fold and >6812 fold
Mean log10 Viral Reduction ([3]; 796R(10 μM) cells, 56 μM compound, 3-day assay): 0.5 log10 and 0.5 ± 0.3 (56 μM) log10
EC50 ([3]; Hepatitis C virus, 796R(10 μM) cells, HCV RNA, 72 hours): > 88 µM
level of housekeeping gene GAPDH mRNA [4]: remained essentially unchanged
Susceptibility Relative to Wild type Enzyme [5]: 8-fold less
IC50 [6]: 140 ± 50 nM
effect on the susceptibility to HCV-796 (in words) ([7]; I363V and S368F replicon variants): modest effect
Fold Reduced Susceptibility ([7]; M414I/V replicon variants, range): 3-8 fold
difference in drug susceptibility (in words) ([8]; M414V/I and I363V enzyme variants vs wild type enzyme): no appreciable difference in drug susceptibility
susceptibility of Asn316 enzymes compared with Cys316 enzymes (in words) ([8]; NS5B enzymes of genotype 1b isolates BK and J4, data not shown): less susceptible
Mean log10 Viral Reduction ([9]; CloneA cells, 0.7 μM compound, 3-day assay): 2.1 log10 and 2.1 ± 0.4 (0.7 μM) log10
EC50 ([9]; CloneA cells, HCV RNA, 72 hours, read-out: EC50 (μM) ± SD): 0.013 ± 0.013 µM
EC50 ([9]; hepatoma cells containing a subgenomic genotype 1b HCV replicon, read-out: EC50): 0.009 µM
EC50 [10]: 220 ± 110 nM
Fold Resistance ([11]; BB7-I363V vs 1b, BB7): 5 fold
Viral Load Reduction ([11]; BB7-I363V, 2240 nM HCV-796, 3-day assay): 1.4 ± 0.1 log
EC50 ([11]; Hepatitis C virus, 72 h, BB7-I363V, 3-day assay, read-out: HCV RNA EC50 (nM) ± SD): 16 ± 5 nM
IC50 [12]: 40 nM
